Legend:
Type in all cases: cell-based
[1] = tested on: JIMT1 breast cancer cells; test: MTS cell viability assay, JIMT1; conditions: Homo sapiens, JIMT-1, 72 h treatment
Experimental: (§1) The cell viability effects of compounds 5a–5f were assessed in LY2, JIMT1, and MDA‐MB‐231 breast cancer cell lines using the 3‐(4,5‐dimethylthiazol‐2‐yl)‐5‐(3‐carboxymethoxyphenyl)‐2‐(4‐sulfophenyl)‐2H‐tetrazolium (MTS) assay. The MTS assay measures metabolic viability and serves as a first‐pass screen.
(§2) JIMT‐1 (DSMZ ACC 589) and MDA‐MB‐231 (ATCC HTB‐26) breast cancer cell lines were maintained in Dulbecco's Modified Eagle Medium (DMEM) High Glucose with L‐glutamine (D5796, Sigma) supplemented with 10% fetal calf serum. MCF7‐derivative LY2 breast cancer cells were previously described (REF: PMID: 33420368). LY2 cells were cultured in phenol red‐free MEM (PRF‐MEM; 51 200‐046, Gibco) supplemented with 10% charcoal dextran‐stripped fetal calf serum (CDS‐FCS; F6765, Merck), 2 mmol/L L‐glutamine (G7513, Merck), and 10^−8 mol/L 4‐hydroxytamoxifen (4‐OHT; H7904, Merck). All cell lines were maintained at 37°C in a humidified incubator with 5% CO2 and regularly authenticated and tested for mycoplasma.
(§3) Cell viability was evaluated in response to increasing concentrations of 5a‐5f (0.3, 1, 3, 10, and 30 μM) or vehicle control (0.1% DMSO). LY2, JIMT1, and MDA‐MB‐231 cells were seeded at a density of 2,500 cells per well in 96‐well plates with a total volume of 100 μL per well. Prior to treatment, cells were serum‐deprived for 24 h. Following serum depletion, cells were treated in complete growth medium for 72 h. Cell viability was assessed using the MTS assay (G1111, Promega) according to the manufacturer's instructions. Absorbance was measured at 495 nm using a BioTek Synergy HTX Multi‐Mode Microplate Reader (Agilent). Results were normalized to the vehicle control (DMSO), and the half‐maximal inhibitory concentration (IC50) of the inhibitors was determined by nonlinear regression (curve fit) using a four‐parameter variable slope model.

[2] = tested on: MDA‐MB‐231 triple‐negative breast cancer cell line; test: MTS cell viability assay, MDA-MB-231; conditions: MDA‐MB‐231 cells, 72 h treatment
Experimental: as §1, §2, §3

class I HDAC (acetyl H3) = test: Western blot, acetyl H3 in treated cells; conditions: LY2, JIMT1, MDA‐MB‐231 cells, 24 h; seen at 10 µM
Experimental: FIGURE 4 Cell‐based evaluation of compounds 5a– 5f. Dose‐dependent effects of compound treatment (5a‐5f) on breast cancer cell viability across JIMT1 (A), MDA‐MB‐231 (B), and LY2 (C). Cell‐based evaluation of HDAC and PI3K inhibition by compounds 5b and 5f by Western blot. JIMT1 cells were treated for 24 h with compounds 5b (D) and 5f (E) at the concentrations of 1, 3, and 10 µM or with vehicle control (0.1% DMSO). Protein expression levels were analyzed by western blot using antibodies against acetylated α‐tubulin, acetyl H3 (H3K9Ac and H3K14Ac), phospho‐AKT (p‐AKT), and total AKT. GAPDH served as a loading control.
To investigate if 5b and 5f were acting as multitarget inhibitors, we evaluated the modulation of HDAC6 and PI3K signaling pathways by western blot analysis (Figure 4D,E). […]
Total protein samples were extracted from treated cells using a lysis buffer containing 0.1% IGEPAL CA‐630 (I8896, Merck), 0.5% deoxycholic acid (D2510, Merck), and 0.1% SDS (L3771, Merck), freshly supplemented with protease and phosphatase inhibitor cocktail (78442, Thermo Fisher Scientific). Protein concentrations were quantified using the Pierce BCA Protein Assay Kit (23227, Thermo Fisher Scientific) according to the manufacturer's instructions. […] Chemiluminescence signals were detected using the Amersham Imager 680 Imaging System. […]

IC50 [1] [µM] | IC50 ([2]; Homo sapiens, MDA-MB-231, 72 h) [µM] | IC50 [2] [µM] | Compound | Acetylation of H3, western blot (class I HDAC (acetyl H3))
5.72 ± 0.76 | < 5 | 4.4 ± 0.54 | O=C(NO)c1ccc(CNc2nc(-c3cccc(O)c3)nc(N3CCOCC3)n2)cc1 [Compound 5b, N‐Hydroxy‐4‐(((4‐(3‐Hydroxyphenyl)‐6‐Morpholino‐1,3,5‐Triazin‐2‐yl)Amino)Methyl)Benzamide] | increased levels of acetylation of H3
3.5 ± 0.95 | < 5 | 3.3 ± 0.13 | COc1ccc(-c2nc(NCc3ccc(C(=O)NO)cc3)nc(N3CCOCC3)n2)cn1 [Compound 5f, N‐Hydroxy‐4‐(((4‐(6‐Methoxypyridin‐3‐yl)‐6‐Morpholino‐1,3,5‐Triazin‐2‐yl)Amino)Methyl)Benzamide] | increased levels of acetylation of H3

Reference: article PMC13110364, “Design, Synthesis, and Biological Evaluation of Novel Triazine‐Based Dual Histone Deacetylase/phosphatidylinositol 3‐kinase Inhibitors for Breast Cancer Therapy” (Chemmedchem, 2026)
